Results published in patent US9238020B2, “Compositions comprising enzyme-cleavable phenol-modified tapentadol prodrug” (priority 2010, dated 2016).

Assays:
[1] = Pharmacokinetics of tapentadol release following PO administration of prodrugs or tapentadol to rats; format: in vivo, rat
Experimental: Saline solutions of Compound TP-1 (which can be prepared as described in the examples herein) were dosed as indicated in Table 1 via oral gavage into 4 jugular vein-cannulated male Sprague Dawley rats that had been fasted for 16-18 hr prior to oral dosing. At specified time points, blood samples were drawn, harvested for plasma via centrifugation at 5,400 rpm at 4° C. for 5 min, and 100 microliters (μl) plasma transferred from each sample into a fresh tube containing 2 μl of 50% formic acid. The tubes were vortexed for 5-10 seconds, immediately placed in dry ice and then stored in a −80° C. freezer until analysis by HPLC/MS.
Saline solutions of Compounds TP-1, TP-3, TP-4, (which can be prepared as described in the examples herein) or tapentadol were dosed in approximately equimole amounts as indicated in Table 6. Dose administration, sampling and analysis procedures were as described in Example 11.
Dosing, sampling and analysis procedures were as described in Example 11.

[2] = Pharmacokinetics of prodrug and tapentadol following IV administration to rats; conditions: male, Sprague Dawley, in vivo; prodrug in rat plasma; TP-1 IV 2 mg/kg (3 μmol/kg); read-out: TP-1 Cmax ± sd
Experimental: Compound TP-1 (which can be prepared as described in the examples herein) was dissolved in saline and injected into the tail vein of 4 jugular vein-cannulated male Sprague Dawley rats at a dose of 2 mg/kg. At specified time points, blood samples were drawn, harvested for plasma via centrifugation at 5,400 rpm at 4° C. for 5 min, and 100 μl plasma transferred from each sample into a fresh tube containing 2 μl of 50% formic acid. The tubes were vortexed for 5-10 seconds, immediately placed in dry ice and then stored in a −80° C. freezer until analysis by high performance liquid chromatography/mass spectrometry (HPLC/MS).
Table 2 and FIG. 4 provide Compound TP-1 and tapentadol exposure results for rats administered Compound TP-1 intravenously. Results in Table 2 are reported as maximum plasma concentration (Cmax) of Compound TP-1 and tapentadol (TP), respectively, (average±standard deviation).
Compound TP-3 or Compound TP-4 (which can be prepared as described in the examples herein), or tapentadol were dissolved in saline and injected into the tail vein of four jugular vein-cannulated male Sprague Dawley rats at a dose of 2 mg/kg. Sampling and analysis procedures were as described in Example 12.

[3] = Pharmacokinetics following PO administration to dogs; format: in vivo, dog; conditions: approximately equimole amounts
Experimental: Purebred male young adult/adult beagles were fasted overnight. Compound TP-1 (which can be prepared as described in the examples herein) or tapentadol (which can be prepared as described in PCT patent application No. WO28012046A1) were administered in approximately equimole amounts in water via oral gavage followed immediately by flushing the gavage tube with 5 mL water prior to withdrawal. Blood was collected from each animal predose and following dose administration at 0.25, 0.5, 1, 2, 3, 4, 6, 8, 10, 12 and 24 hours postdose. Blood samples were centrifuged and 0.8 mL plasma transferred to fresh tubes containing 8 μl formic acid; samples were vortexed, then immediately placed in dry ice and stored in a −80° C. freezer until analysis by HPLC/MS.
Table 5 and FIG. 6 provide tapentadol exposure results for dogs administered Compound TP-1 or tapentadol. Results in Table 5 are reported for each group of four dogs as described in Example 11.

[4] = In vitro stability of Compound TP-1 to household chemicals and enzyme preparations; format: physicochemical
Experimental: Compound TP-1 (which can be prepared as described in the examples herein) was exposed at room temperature (RT) or 80° C. for either 1 or 24 hours (hr) to the following household chemicals: vodka (40% alcohol), baking soda (saturated sodium bicarbonate solution, pH 9), WINDEX® with Ammonia-D (pH 11) and vinegar (5% acetic acid). Compound TP-1 was also exposed to the following enzyme-containing compositions at RT for 1 or 24 hr: GNC® Super Digestive (2 capsules of GNC Super Digestive Enzymes dissolved in 5 mL of water), tenderizer (Adolf's meat tenderizer, primarily papain, dissolved in water to a concentration of 0.123 g/mL to approximate the concentration of a marinade given on the bottle label), and subtilisn (8 tablets of ULTRAZYME® contact lens cleaner (Advanced Medical Optics, Milpitas, Calif.) dissolved in 4 mL water). Samples were incubated as described and aliquots removed at 1 hr and 24 hr and stabilized by adding each to a solution of 50% or 100% of 85% phosphoric acid solution to achieve a final pH of less than or equal to pH 4. The stabilized aliquots were then diluted 4- to 6-fold with water, vortex-mixed and applied to HPLC.
The solid black bars indicate the percentage of Compound TP-1 remaining after exposure, and the lightly shaded bars with a black outline indicate the percentage conversion of Compound TP-1 to tapentadol.

human μ-opioid receptor [5] = biological target: T1, human μ-opioid receptor (Homo sapiens, UniProt P35372); experiment: In vitro human μ-opioid receptor agonist cellular functional assay (cAMP, CHO cells); format: cell-based; set-up: expressed in transfected cells; conditions: CHO cells expressing human μ-opioid receptor, 37° C., 10 min
Experimental: The general procedure follows the protocol described by J.-B. Wang, et al, ibid. More specifically, the assay included as appropriate, Compound TP-1 or tapentadol and recombinant Chinese hamster ovary (CHO) cells expressing the human μ-opioid receptor on their cell surfaces. The control reaction included 1 μM DAMGO. The reaction mixtures were incubated at 37° C. for 10 min, and the reaction product was cyclic AMP (cAMP). The samples were submitted to homogeneous time resolved fluorescence (HTRF®). EC50 values (concentration producing a half-maximal specific response) were determined by non-linear regression fit using Hill plot software.

human μ-opioid receptor [6] = biological target: T1, human μ-opioid receptor; experiment: In vitro human μ-opioid receptor binding assay ([3H]DAMGO, recombinant HEK-293 cells); set-up: expressed in transfected cells; host or cells: HEK-293; conditions: relative to tapentadol
Experimental: The general procedure follows the protocol described by J.-B. Wang, et al, 1994, FEBS Lett. 338, 217-222. More specifically, the assays included tapentadol or Compound TP-1 (which can be prepared as described in the examples herein) as well as recombinant HEK-293 cells expressing the human μ-opioid receptor on their cell surfaces, reference compound [d-Ala^2,N-Me-Phe^4,Gly^5−ol]-enkephalin (DAMGO), radioligand [^3H]DAMGO (0.5 nM) and non-specific ligand naloxone (10 uM). The reaction mixtures were incubated at 22° C. for 2 hr. The samples were then submitted to scintillation counting.
In these assays, the specific binding of a test compound to the receptor is defined as the difference between the total binding and the non-specific binding determined in the presence of an excess of unlabelled ligand. Results are expressed as a percent of control of specific binding and as a percent inhibition of control specific binding obtained in the presence of test compounds. The IC50 values (concentration of competing ligand required for 50% inhibition of [^3H]DAMGO binding), and Hill coefficients (nH) were determined by non-linear regression analysis of competition curves using Hill equation curve fitting.

T1 sequence (P35372 whole entry): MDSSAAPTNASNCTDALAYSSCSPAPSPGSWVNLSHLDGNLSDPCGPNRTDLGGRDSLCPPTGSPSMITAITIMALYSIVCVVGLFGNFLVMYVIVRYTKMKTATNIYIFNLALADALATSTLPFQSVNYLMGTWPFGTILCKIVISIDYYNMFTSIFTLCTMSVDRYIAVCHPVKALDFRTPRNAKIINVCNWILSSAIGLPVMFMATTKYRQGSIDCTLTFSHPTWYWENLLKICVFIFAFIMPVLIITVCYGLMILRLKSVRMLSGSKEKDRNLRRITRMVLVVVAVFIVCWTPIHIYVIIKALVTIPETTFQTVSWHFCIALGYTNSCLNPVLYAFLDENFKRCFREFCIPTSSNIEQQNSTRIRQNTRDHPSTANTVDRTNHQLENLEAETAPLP

In the case of CC[C@@H](c1cccc(OC(=O)N(C)CCNC(=O)[C@H](CCCNC(=N)N)NC(=O)CC(=O)O)c1)[C@@H](C)CN(C)C [Compound TP-1, N—[(S)-1-(2-{[3-((1R,2R)-3-dimethylamino-1-ethyl-2-methyl-propyl)-phenoxycarbonyl]-methyl-amino}-ethylcarbamoyl)-4-guanidino-butyl]-malonamic acid], the “plasma concentrations of tapentadol versus prodrug dose” value ([1]; 5 to 50 mg/kg) is reported as “increase proportionally”, the “tapentadol plasma concentration profile compared to administration of tapentadol” value ([1]; approximately equimole amounts) is reported as “suppressed Cmax and delayed Tmax” and the Cmax [2] is reported as 965 ± 160 ng/mL. The “tapentadol PK profile compared to administration of tapentadol” value [3] was “delayed Tmax and increased AUC”, the conversion to tapentadol ([4]; all other conditions (household chemicals at RT or 80° C., enzyme preparations at RT, 1 or 24 hr)) was “less than 10%” and the conversion to tapentadol ([4]; sodium bicarbonate at 80° C. or Windex at 80° C. for 24 hr) was 10-20%. For the same molecule, the “agonist response in the μ-opioid receptor functional assay” value (human μ-opioid receptor [5]) was “weak response was seen at 100 μM” and the “affinity for the μ-opioid receptor, fold less than that of tapentadol” value (human μ-opioid receptor [6]) was “at least 200 fold”.
